Test results: patent US20250176553A1, “SOLUTION FOR […] AND METHOD OF PRODUCING THEREOF” (OCT, Inc., priority 2022, published 2025)
Where “and” joins values, the source holds several entries; their conditions need not be identical. Identical values can stand only once. Like-named read-outs stand apart in the source and are kept apart here.

Legend:
hibiscus leaf = settings: adjusted to pH 0.5; leaf surface wetted, observed after 20 hours
Description: A hibiscus leaf was divided into left and right halves by the central vein. […] The surfaces of the half leaves were observed after 20 hours.

[1] = for Viscosity: 4 cc added to 150 g test sample, 25° C.
Description: The starch syrup used was manufactured by KATO SANGYO CO., LTD. (product name “Kanpy starch syrup”) and the vegetable jelly used was from COOP (manufacturer: Ina Food Industry Co., Ltd.) (product name “Coop Agar”).
Solutions for destroying biofilms adjusted to various pH values and a test solution were added to test mixtures of starch syrup and Coop Agar and the viscosity of each mixture was measured. Viscosity was measured using a “Viscotester (high viscosity type) VT-06” manufactured by RION Co., Ltd.
First, starch syrup and Coop Agar were mixed in a beaker at a ratio of 34 to 5 and the viscosity was measured with a Viscotester (high viscosity type) VT-06. […] The mixture of starch syrup and Coop Agar to be used for the test (test sample) was prepared weighing 150 grams. […] To 150 g of the test sample, 4 cc of the test solution was added and the measurement was performed with a Viscotester (high viscosity type) VT-06. The room temperature was 25° C. and humidity was 63% when the test was conducted.

[2] = system: Streptococcus mutans biofilms; settings: for Absorbance, Average value: average of samples 1-6; for Absorbance, Average value / Absorbance: 590 nm; for Absorbance: individual samples 1-6, 24 hours culture
Description: (§1) FIGS. 3 to 6 show the experimental results in which Streptococcus mutans strains are actually used. Streptococcus mutans is a facultative anaerobe and a gram-positive streptococcus. It produces insoluble, sticky glucans that stick to tooth surfaces. It is one of the bacteria that mainly cause dental caries. THB (TODD-HEWITT BROTH) supplemented with 2% (w/v) sucrose was used as the medium. Sucrose is a sugar composed of the monosaccharides glucose and fructose with an α-1,2-glycosidic linkage and one of the disaccharides. THB manufactured by Becton, Dickinson and Company was used. For sucrose, “CASRN” manufactured by FUJIFILM Wako Pure Chemical Corporation was used. The plate used for culture was a Thermo Scientific Nunclon Delta Surface 96 well. The incubator used was a Panasonic multi-gas incubator MCO-5MUV-PJ. Culturing was conducted at 37° C. under an atmosphere of 5% CO2 gas, 5% O2 gas and 90% N2 gas.
(§2) Devices and the like used to measure residual biofilms are described below. For staining, 0.1% Crystal Violet from FUJIFILM Wako Pure Chemical Corporation was used. It was dissolved in distilled water to 0.1% (w/v).
(§3) Life Technologies EVOS XL Core was used as the microscope for photography. […] Co., Ltd. was used as the absorption spectrometer. The data processing software was “SF6” and the absorbance wavelength was 590 nm.
Streptococcus mutans was diluted in 2% sucrose-containing THB and 10 inoculated samples of 100 μL each were plated onto cell culture plates (Thermo Scientific Nunclon Delta Surface 96well). […] No test solution was added to one of the 10 inoculated samples.
(§4) The samples were then cultured in a multi-gas incubator for 24 hours to allow biofilms to form on the bottom of each plate. After culturing, the plates were washed with distilled water and stained with 0.1% Crystal Violet solution for 10 minutes. After staining, the plates were washed again with distilled water, dried and then observed and photographed with a bright field inverted microscope.
(§5) Crystal Violet was then extracted with 100 μL of 99.5% ethanol (FUJIFILM Wako Pure Chemical Corporation), and the absorbance was measured at a wavelength of 590 nm using an absorption spectrometer grating microplate reader.

Fn bacteria biofilms = settings: for Absorbance, Average value: average of samples 1-5
Description: THB (TODD-HEWITT BROTH) supplemented with 2% (w/v) sucrose was used as the medium. Sucrose is a sugar composed of the monosaccharides glucose and fructose with an α-1,2-glycosidic linkage and one of the disaccharides. THB manufactured by Becton, Dickinson and Company was used. For sucrose, “CASRN” manufactured by FUJIFILM Wako Pure Chemical Corporation was used. The plate used for culture was a Thermo Scientific Nunclon Delta Surface 96 well. The incubator used was a Panasonic multi-gas incubator MCO-5MUV-PJ. Culturing was conducted at 37° C. under an atmosphere of 5% CO2 gas, 5% O2 gas and 90% N2 gas.
Fn bacteria were diluted in 2% sucrose-containing THB and 10 inoculated samples of […] each were plated onto cell culture plates (Thermo Scientific Nunclon Delta Surface 96well). […] No test solution was added to one of the […] inoculated samples.
as §4, with “washed” for “washed again”, “water again” for “water, dried”, “dried.” for “then observed and photographed with a bright field inverted microscope.”
as §5

[3] = system: Streptococcus mutans biofilms; settings: for Absorbance, Average value: average of samples 1-6, 590 nm; for Absorbance trend: FIG. 5
Description: as §1, §2, §3
(§6) Streptococcus mutans was diluted in 2% sucrose-containing THB and 10 inoculated samples of 100 μL each were plated onto cell culture plates (Thermo Scientific Nunclon Delta Surface 96well). The samples were then cultured in a multi-gas incubator for 24 hours to allow biofilms to form on the bottom of each plate.
as §4, with “were further” for “were then”, “24 hours.” for “24 hours to allow biofilms to form on the bottom of each plate.”, “photographed using” for “photographed with”
as §5

[4] = system: Streptococcus mutans biofilms; settings: for Absorbance, Average value: average of samples 1-6; for Absorbance: individual samples 1-6, medium replaced after biofilm formation, further 24 hours
Description: as §1, §2, §3, §6
The media were removed and the plates were washed with distilled water 24 hours after the start of cultivation. […] The samples were further cultured in a multi-gas incubator for 24 hours. After culturing, the plates were washed with distilled water and stained with 0.1% Crystal Violet solution for 10 minutes. After staining, the plates were washed again with distilled water, dried and then observed and photographed using a bright field inverted microscope.

## [2H]OS(=O)(=O)O[2H] [deuterated sulfuric acid (D2SO4)]
Hibiscus leaf
  Leaf surface damage (white spotted areas, dead leaf cells): the white spotted areas surrounded by dotted lines are significantly smaller
[1]; pH 0.5
  Viscosity reduction compared to pH 7.0: ⅓
[1]; test solution pH 0.5
  Viscosity: 130 dPa · s
[1]; test solution pH 2.0
  Viscosity: 150 dPa · s
[1]; test solution pH 3.0
  Viscosity: 180 dPa · s
[1]; test solution pH 4.0
  Viscosity: 210 dPa · s
[1]; test solution pH 5.0
  Viscosity: 240 dPa · s
[1]; test solution pH 6.0
  Viscosity: 310 dPa · s
[2]; pH 0.8, 1.2 and 1.5, FIG. 3 upper panel
  Colour of stained plate (photograph, remaining biofilm): biofilm formation is significantly inhibited and destroyed
[2]; pH 0.8
  Absorbance, Average value: 0.089
  Absorbance: 0.089 (3×) and 0.090 (2×) and 0.088
[2]; pH 1.2
  Absorbance, Average value: 0.096
[2]; pH 1.5
  Absorbance, Average value: 0.100
[2]; pH 2.3
  Absorbance: 0.734
[2]; pH 3.3
  Absorbance: 0.876
[2]; pH 3.7
  Absorbance: 0.874
[2]; pH 4.0
  Absorbance: 0.733
[2]; pH value below 2.3, FIG. 4
  Biofilm formation from absorbance trend: almost no biofilm was formed
Fn bacteria biofilms; pH 0.5, 590 nm
  Absorbance, Average value: 0.123
Fn bacteria biofilms; pH 0.5, individual samples 1-5, 590 nm, 24 hours culture
  Absorbance: 0.123 (2×) and 0.124 (2×) and 0.122
Fn bacteria biofilms; pH 2.0, 590 nm
  Absorbance, Average value: 0.320
Fn bacteria biofilms; pH 3.0, 590 nm
  Absorbance, Average value: 0.386
Fn bacteria biofilms; pH 4.0, 590 nm
  Absorbance, Average value: 0.425
Fn bacteria biofilms; pH 5.0, 590 nm
  Absorbance, Average value: 0.441
Fn bacteria biofilms; pH 6.0, 590 nm
  Absorbance, Average value: 0.465
Fn bacteria biofilms; pH value below 4.5, compared to pH 6.0, FIG. 7
  Biofilm formation from absorbance trend: biofilm formation was made more difficult
[3]; lower pH values, FIG. 3 middle panel
  Colour of stained plate (photograph, remaining biofilm): more biofilms were destroyed
[3]; pH 0.8
  Absorbance, Average value: 0.678
[3]; pH 1.2
  Absorbance, Average value: 1.164
[3]; pH 1.5
  Absorbance, Average value: 1.250
[3]; pH 2.3
  Absorbance, Average value: 1.288
[3]; pH 2.7
  Absorbance, Average value: 1.375
[3]; pH 3.0
  Absorbance, Average value: 1.457
[3]; pH 3.3
  Absorbance, Average value: 1.226
[3]; pH 3.7
  Absorbance, Average value: 1.354
[3]; pH 4.0
  Absorbance, Average value: 1.346
[3]; pH value below 1.5
  Absorbance trend: absorbance decreased rapidly
[3]; pH value below 3.0
  Absorbance trend: absorbance decreased gradually
[4]; lower pH values, FIG. 3 lower panel
  Colour of stained plate (photograph, remaining biofilm): more biofilms were destroyed
[4]; pH 0.5
  Absorbance, Average value: 0.590
  Absorbance: 0.438 and 0.570
[4]; pH 0.8
  Absorbance, Average value: 0.729
  Absorbance: 0.649 and 0.678
[4]; pH 1.2
  Absorbance: 0.948 and 0.729 and 0.723
[4]; pH 2.0
  Absorbance, Average value: 0.989
  Absorbance: 0.951 and 0.966 and 0.921
[4]; pH 2.3
  Absorbance, Average value: 1.083
  Absorbance: 1.091 and 1.052 and 1.038
[4]; pH 2.7
  Absorbance, Average value: 1.098
  Absorbance: 1.167 and 1.149 and 1.070
[4]; pH 3.0
  Absorbance, Average value: 1.038
  Absorbance: 1.036 and 1.113
[4]; pH 3.3
  Absorbance, Average value: 1.113
  Absorbance: 1.044 and 1.117 and 1.054
[4]; pH 3.7
  Absorbance, Average value: 1.107
  Absorbance: 1.157 and 1.116 and 1.040
[4]; pH below 2.0, FIG. 6
  Biofilm destruction from absorbance trend: biofilms are destroyed

## O=S(=O)(O)O [sulfuric acid (H2SO4), reference compound]
Hibiscus leaf
  Leaf surface damage (white spotted areas, dead leaf cells): areas where leaf cells are dead
